Data on 2 compounds can be found in patent publication US7507864B2, “Method for the synthesis of curcumin analogues” (Salisbury University, priority 2006, dated 2009).

The data set in a line: Solubility in organic solvents. The conditions noted are these: for solubility in acetone: solvent acetone; for solubility in ethanol: solvent ethanol; for solubility in ethyl acetate: solvent ethyl acetate; for solubility in isobutyl acetate: solvent isobutyl acetate. It is filed as physicochemical. From the text:
Curcumin is a bright red product once purified and maintains the vanilla fragrance due to the presence of methoxy groups from the starting product vanillin. It is soluble in acetone, ethyl acetate, ethanol, and isobutyl acetate. The solubility of bisdemethoxycurcumin, however, is slightly different. It is very soluble in ethanol and isobutyl acetate but acetone and ethyl acetate solubility is limited. Bisdemethoxycurcumin maintains a pumpkin-orange appearance and is more crystalline in nature than curcumin.

With `O=C(/C=C(O)/C=C/c1ccc(O)cc1)/C=C/c1ccc(O)cc1` [bisdemethoxycurcumin, 1,7-bis-(4-hydroxyphenyl)-1,6-heptadiene-3,5-dione], the solubility in acetone entry is “limited”, the solubility in ethanol result is on record as “very soluble”, the “solubility in ethyl acetate” value was “limited” and the “solubility in isobutyl acetate” value is given as “very soluble”.

For `COc1cc(/C=C/C(=O)CC(=O)/C=C/c2ccc(O)c(OC)c2)ccc1O` [Curcumin, 1,7-bis(4-hydroxy-3-methoxyphenyl)-1,6-heptadiene-3,5-dione], the solubility in acetone entry is on record as “soluble”, the solubility in ethanol entry is on record as “soluble”, the “solubility in ethyl acetate” value is “soluble” and the “solubility in isobutyl acetate” value was “soluble”.
